A value given as a limit tells only on which side of the number the result lay.

We go through seven compounds from patent US7414068B2, “Benzopyran derivatives substituted with secondary amines including tetrazole, method for the preparation thereof and pharmaceutical compositions containing them” (Dongbu Hannong Chemical Co., Ltd., priority 2002, dated 2008).

For series [1], the system named is Low density lipoprotein of human (human LDL). As to the kind of experiment: Inhibitory effect against lipid peroxidation induced by copper (LDL oxidation, MDA). The series is classed as biochemical. As to conditions: CuSO4 10 μM, 37° C. 18 hours. On the procedure:
Low density lipoprotein of human (human LDL, sigma) was dissolved in water to be final concentration of 1 mg/ml. To remove EDTA (ethylenediamine tetraacetate), the aqueous solution was dialyzed in phosphate buffer at 4° C. for 18 hours. At this dialysis, phosphate buffer was changed three times. Phosphate buffer was added to LDL (100 μg LDL protein/ml) which EDTA was removed from the aqueous solution, additionally thereto CuSO4 10 μM as oxidant was added. […] Group to which CUSO4 was not added was used as blank group. Group to which CUSO4 and vehicle were added in place of test compounds was used as control group. The mixture was incubated at 37° C. for 18 hours. EDTA […] was added to the mixture to terminate the oxidation reaction.
As shown in example 4, Cu^2+ facilitates the oxidation reaction to produce malondialdehyde (MDA), lipid peroxidation product. The MDA quantification is achieved by reacting samples with 2-thiobarbituric acid (TBA) and measuring the absorbance at 530 nm. Also, 1,1,3,3-tetramethoxypropane purchased from sigma was used as standard materials. Inhibitory effect against lipid peroxidation of the test compounds was measured by MDA (nmol) to protein (mg). Decrease of MDA to that of control group was calculated.

The subject of series [2] is cortical neuron cells. As to the kind of experiment: Protective effect on hydrogen peroxide induced neuronal cell injury. The series is classed as cell-based. As to conditions: hydrogen peroxide 30 μM.
In the next series the test system is isolated rat aorta. The series is described as follows: Vasodilating effect on blood vessel excised from rats (methoxamine-constricted aorta). As to conditions: isolated rat aorta constricted with methoxamine (3 μM); read-out: Concentration for inhibition of constriction induced by methoxamine in rat arota (IC50). The essentials:
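Endothelium-denuded rat thoracic aortic rings (3 mm) in Krebs-Henseleit buffer, 37 °C, carbogen, 2 g resting tension, primed twice with 10^−5 M phenylephrine. After maximal contraction with 3×10^−6 M methoxamine, compounds added cumulatively at 1, 3, 10, 30 μM. IC50 = concentration giving 50% relaxation of maximal constriction, by linear regression.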

The test system of series [3] is isolated ischemic rat heart. As to the kind of experiment: Cardioprotective effect in ischemic heart models of rats (Langendorff). As to conditions: 10 μM. The essentials:
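Langendorff-perfused male rat hearts (Krebs-Henseleit, 85 mmHg, 37 °C) pretreated 10 min with compound or vehicle (0.04% DMSO), then 30 min global ischemia and 30 min reperfusion. Read-outs: LVDP, HR, CF, rate-pressure product, time to contracture (first 5 mmHg EDP rise), LDH release.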

Series [4] deals with A7r5 (Rat thoracic aorta smooth muscle cell line, ATCC). As to the kind of experiment: Inhibitory effect on accumulation of reactive oxygen species induced by hydrogen peroxide (DCF fluorescence). The series is classed as cell-based. As to conditions: hydrogen peroxide 50 μM. On the procedure:
To measure reactive oxygen species, H2DCFDA (2′,7′-dichlorodihydrofluorescein diacetate, Molecular Probes, Eugene, Oreg., USA) was used. If H2DCFDA, nonpolar material is transferred through cell membrane, it is changed to H2DCF (2′,7′-dichlorodihydrofluorescein), material impermeable to membrane by intracellular esterase. H2DCF is changed to high fluorescent DCF (2′,7′-dichlorofluorescein) by low fluorescent peroxidated oxygen or hydroxyl radical. H2DCFDA solution (10 mM) dissolved in DMSO was used before the experiment. A7r5 (Rat thoracic aorta smooth muscle cell line, ATCC), as smooth muscle cell was incubated in DMEM (Dulbecco's Modified Eagle's Medium) containing 10% of FBS (fetal bovine serum). Thereafter, the cell was incubated in 48 well plate for two days, then was incubated in serum-free DMEM for 24 hours to use for experiment. Krebs-linger buffer (Krebs-Ringer (K-R), 99.01 mM NaCl, 4.69 mM KCl, 1.87 mM CaCl2, 1.2 mM MgSO4, 1.03 mM K2HPO4, 25 mM NaHCO3, 20 mM Hepes, 11.1 mM D-glucose, pH 7.4) was used for washing and process of cell monolayers. After cell monolayers media was removed, each of test compounds (0.2 ml) was pre-treated to media, then incubated at 37° C. for 15 min. Final concentration was 50 μM, hydrogen peroxide was added. The media was allowed to stand for 30 min. The said solution from media was removed. The media was washed one time. H2DCFDA 20 μM was added to the media. The media was allowed to stand for 30 min. the media was washed two times. Thereafter, oxidation of H2DCFDA was measured by Fluorescence reader (FL600, Biotech Instruments, 485 nm excitation, 530 nm emission).

Series [5] relates to HUVEC (Human Umbilical Vein Endothelial Cell). The series is described as follows: Inhibitory effect against HUVEC tube formation. The series is classed as cell-based. More on the design: key: −: no effect; +/−: slight effect; +: medium effect; ++: strong effect. On the procedure: HUVEC (Human Umbilical Vein Endothelial Cell) were cultured, and tubulogenesis (tube formation) was induced in vascular endothelial cells by plating them onto the surface of Matrigel for several hours. The effect on tube formation of the test compounds were compared with the vehicle-treated control group, then confirmed their in-vitro anti-angiogenic effect indirectly.

The test system of series [6] is cortical neuron cells. The series is described as follows: Protective effect on iron-induced neuronal cell injury (LDH release). The series is classed as cell-based. As to conditions: FeSO4 50 μM. The essentials: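 Embryonic (day 17–18) cortical neurons cultured 7–9 days, serum lowered to 0.2%, pretreated 30 min with compound (DMSO ≤0.1%), then exposed to 50 μM FeSO4 for 24 h. LDH released to medium measured; protection expressed as LDH reduction versus vehicle control.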
(In general: LDH leaks from cells whose membrane has failed.)

Another series deals with brain homogenate. The series is described as follows: Inhibitory effect against lipid peroxidation by iron (MDA quantification). As to conditions: 100 μM compound, FeCl2 400 μM, 37° C. 30 min. The series is classed as biochemical, rat.
A short description of series [7]: Acute oral toxicity test in rats. As to conditions: SD, rat, in vivo, single oral dose, suspended in 0.5% methyl cellulose, read-out: lethal dose (LD50) for oral administration. The method in brief:
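Six-week-old SPF SD rats, two per group, received compounds orally as suspensions in 0.5% methyl cellulose. Endpoints were clinical signs, body weight, mortality, haematology, serum biochemistry and macroscopic necropsy of organs and tissues.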

As for tocopherol, the results for the “Inhibitory effect(%) against lipid peroxidation induced by copper” value in series [1] (Addition 10^−5 M) and in series [1] (Addition 10^−7 M) were 29.7% and 21.3%, respectively.

As to `CC(C)(Sc1cc(C(C)(C)C)c(O)c(C(C)(C)C)c1)Sc1cc(C(C)(C)C)c(O)c(C(C)(C)C)c1` [Probucol], the figures for the “Inhibitory effect(%) against lipid peroxidation induced by copper” value in [1] (Addition 10^−5 M), in [1] (Addition 10^−6 M) and in [1] (Addition 10^−7 M) were 66.7%, 58.7% and 33.7%, respectively.

As to `CC(CN1c2ccccc2Sc2ccccc21)N(C)C` (stereo not shown) [Promethazine], the “Inhibition(%) of hydrogen peroxide induced neuronal cell injury” value (shortened to “Inhibition(%)”) in the series with cortical neuron cells [2] (Addition 5 μM) stood at 97%.

As for `CC1(C)Oc2ccc(C#N)cc2[C@@H](NC(=NC#N)Nc2ccc(Cl)cc2)[C@@H]1O` [BMS-180448, reference compound], the IC50 in the series on isolated rat aorta worked out at 1.38 µM. In the series on cortical neuron cells [2] (Addition 30 μM), the “Inhibition(%)” value is on record as −5%. Moreover, the “EDP (mmHg)” value in [3] (after 30 min global ischemia and reperfusion) is listed as 16.5 mmHg. Moreover, the “LDH (u/g)” value in [3] (reperfusion LDH release) turned out to be 17.2 u/g. Also, the “LVDP X HR (%)” value in [3] (reperfusion, % of pre-treatment DP) was 67.6%. For the same compound, the “TTC” value in series [3] (time to contracture during global ischemia) was found to be 27.8 min.

In the case of `CCCOC(=O)c1cc(O)c(O)c(O)c1` [Propyl gallate, reference compound], the “Inhibitory(%) against reactive oxygen species accumulation” value in series [4] (addition 3 μM) amounted to 57%; in [4] (addition 10 μM) it was 94%; in series [4] (addition 30 μM), 108%. Moreover, in the series on cortical neuron cells [2] (Addition 10 μM), the “Inhibition(%)” value came to 94%.

In the case of `COC(OC)[C@@]1(C)Oc2ccc(N)cc2[C@H](N(Cc2nnn(C)n2)c2ccc(C)cc2)[C@H]1O` [Example 28, (2S,3R,4S)-6-amino-4-[N-(4-methylphenyl)-N-(2-methyl-2H-tetrazol-5-ylmethyl)amino]-3-hydroxy-2-methyl-2-dimethoxymethyl-3,4-dihydro-2H-1-benzopyran], the IC50 was > 30 µM in the series on isolated rat aorta and 4.1 µM in the series with cortical neuron cells [6] (Cortical neurone, 24 h, LDH). The “Tube formation (inhibitory effect)” value was “+/−” in series [5] (10 μM) and “+” in [5] (100 μM). Moreover, in the series with cortical neuron cells [6] (30 μM compound, 24 hours, LDH reduction vs control), the “protective effect on neuron cell: Inhibition (%, 30 μM compound addition)” value worked out at 103%. The “inhibitory effect against lipid peroxidation induced by iron (%, 100 μM)” value with brain homogenate turned out to be 83%. In addition, in [7], the LD50 was > 2000 mg/kg.

On to `COC(OC)[C@@]1(C)Oc2ccc([N+](=O)[O-])cc2[C@H](N(Cc2nnn(C)n2)c2ccc(Cl)cc2)[C@H]1O` [Example 2, (2S,3R,4S)-6-nitro-4-[N-(4-chlorophenyl)-N-(2-methyl-2H-tetrazol-5-ylmethyl)amino]-3-hydroxy-2-methyl-2-dimethoxymethyl-3,4-dihydro-2H-1-benzopyran], for which the “Tube formation (inhibitory effect)” value is “+” in series [5] (10 μM) and “++” in series [5] (100 μM).
